Holding throughout (format): biochemical
One assay deals with T1, PKCθ (Homo sapiens, UniProt Q04759).
T1 construct: purchased Pan Vera
Kind of assay: Ki Pan Vera (PV) potency for PKCθ. Particulars: Ki Pan Vera (PV) of PKCθ. The method, then: (§1) For Ki Pan Vera (PV) of PKCθ, entries identified with “A” had values below 100 nM; entries identified with “B” had values below 1 μM; and entries identified with “C” had values below 10 μM.

The target in the next assay is T2, SGK kinase (Homo sapiens, UniProt O00141).
T2 sequence (O00141 1-431): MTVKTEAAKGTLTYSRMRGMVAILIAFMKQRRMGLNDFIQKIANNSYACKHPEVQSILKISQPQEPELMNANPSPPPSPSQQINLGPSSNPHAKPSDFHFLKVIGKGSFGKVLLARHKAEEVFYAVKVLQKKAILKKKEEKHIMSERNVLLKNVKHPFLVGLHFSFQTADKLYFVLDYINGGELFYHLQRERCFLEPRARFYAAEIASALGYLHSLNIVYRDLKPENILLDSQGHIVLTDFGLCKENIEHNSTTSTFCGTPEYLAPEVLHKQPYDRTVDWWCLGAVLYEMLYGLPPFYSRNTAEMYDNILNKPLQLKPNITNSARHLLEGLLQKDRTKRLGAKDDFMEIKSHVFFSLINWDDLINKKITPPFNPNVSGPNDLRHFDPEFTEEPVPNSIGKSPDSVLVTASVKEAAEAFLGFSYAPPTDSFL
Kind of assay: IC50 for SGK kinase (selectivity). As to conditions: for IC50: read-out: IC50-SGK1. On the procedure: Entries identified with “1” had values above 250 nM; entries identified with “2” had values above 1 μM; entries identified with “3” had values above 10 μM.

The target in another assay is T3, PKC alpha (Homo sapiens, UniProt P17252).
T3 construct: purchased Pan Vera
Description: Ki Pan Vera (PV) potency for PKC alpha. As to conditions: Ki Pan Vera (PV) of PKC alpha. The method, then: [The source words this procedure for another target and reports this target under the same test.] as §1

The target of another assay is T4, PKC delta (Homo sapiens, UniProt Q05655).
T4 construct: purchased Pan Vera
Kind of assay: Ki Pan Vera (PV) potency for PKC delta. As to conditions: Ki Pan Vera (PV) of PKC delta. The method, then: [The source words this procedure for another target and reports this target under the same test.] as §1

Each structure is given as a SMILES string. Some results are limits rather than exact numbers.

T4 sequence (Q05655 whole entry): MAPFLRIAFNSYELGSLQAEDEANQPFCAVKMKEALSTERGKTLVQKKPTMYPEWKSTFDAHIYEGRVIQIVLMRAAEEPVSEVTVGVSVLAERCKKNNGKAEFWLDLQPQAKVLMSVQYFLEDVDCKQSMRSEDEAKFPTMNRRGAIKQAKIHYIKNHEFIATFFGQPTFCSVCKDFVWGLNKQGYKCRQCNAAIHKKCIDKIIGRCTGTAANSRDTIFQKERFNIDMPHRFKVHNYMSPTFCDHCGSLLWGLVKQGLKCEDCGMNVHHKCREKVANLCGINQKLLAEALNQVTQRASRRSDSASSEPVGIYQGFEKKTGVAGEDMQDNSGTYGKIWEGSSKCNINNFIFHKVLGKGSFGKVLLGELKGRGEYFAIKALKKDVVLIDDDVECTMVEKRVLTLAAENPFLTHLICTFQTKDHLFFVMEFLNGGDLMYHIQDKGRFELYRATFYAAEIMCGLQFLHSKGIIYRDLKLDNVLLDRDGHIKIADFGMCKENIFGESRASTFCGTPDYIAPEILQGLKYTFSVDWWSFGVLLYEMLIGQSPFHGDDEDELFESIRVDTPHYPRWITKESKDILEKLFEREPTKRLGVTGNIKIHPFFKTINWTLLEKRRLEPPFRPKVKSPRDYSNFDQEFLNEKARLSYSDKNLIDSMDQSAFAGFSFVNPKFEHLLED
T1 sequence (Q04759 whole entry): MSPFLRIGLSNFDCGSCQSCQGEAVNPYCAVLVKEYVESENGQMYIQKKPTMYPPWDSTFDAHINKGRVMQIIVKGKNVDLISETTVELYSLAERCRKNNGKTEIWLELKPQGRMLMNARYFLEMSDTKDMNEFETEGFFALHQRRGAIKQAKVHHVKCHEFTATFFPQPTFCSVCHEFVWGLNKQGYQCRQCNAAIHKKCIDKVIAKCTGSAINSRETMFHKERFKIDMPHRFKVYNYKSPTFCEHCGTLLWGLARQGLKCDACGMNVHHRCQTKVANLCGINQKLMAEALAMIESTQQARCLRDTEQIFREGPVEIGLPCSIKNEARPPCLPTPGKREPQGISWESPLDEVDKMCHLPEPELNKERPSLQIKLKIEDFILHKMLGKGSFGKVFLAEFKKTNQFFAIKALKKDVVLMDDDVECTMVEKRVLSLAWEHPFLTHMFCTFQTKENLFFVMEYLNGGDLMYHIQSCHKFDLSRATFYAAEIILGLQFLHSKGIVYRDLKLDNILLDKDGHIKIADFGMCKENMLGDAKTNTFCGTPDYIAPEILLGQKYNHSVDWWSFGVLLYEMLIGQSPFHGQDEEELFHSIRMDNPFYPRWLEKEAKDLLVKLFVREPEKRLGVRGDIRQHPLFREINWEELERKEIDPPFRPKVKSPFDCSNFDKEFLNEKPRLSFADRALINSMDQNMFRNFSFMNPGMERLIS

As for `Fc1ccc(CNc2ncc3nc(-c4c(Cl)cccc4Cl)n(C[C@@H]4CCCNC4)c3n2)c(F)c1` [Compound 109], the Ki was under 0.1 µM at PKCθ, over 1 µM at PKC alpha and over 1 µM on PKC delta. In addition, the IC50-SGK1 entry on SGK kinase is given as “Inactive”.
On to `Fc1ccccc1CNc1ncc2nc(-c3c(Cl)cccc3Cl)n(C[C@@H]3CCCNC3)c2n1` [Compound 110], for which the figures for the Ki on PKCθ, at PKC alpha and at PKC delta were under 0.1 µM, over 1 µM and over 1 µM, respectively. Besides, on SGK kinase, the IC50 was over 1 µM.
Take `Fc1ccc(Cl)cc1CNc1ncc2nc(-c3c(F)cccc3Cl)n(C[C@@H]3CCCNC3)c2n1` [Compound 115]: the figures for the Ki at PKCθ, on PKC alpha and on PKC delta were under 1 µM, over 10 µM and over 1 µM, respectively. Further, at SGK kinase, the IC50 is over 10 µM.
Regarding `C[C@H](Nc1ncc2nc(-c3c(Cl)cccc3Cl)n(C[C@@H]3CCCNC3)c2n1)c1ccccc1F` [Compound 116], the Ki is under 1 µM on PKCθ, over 10 µM on PKC alpha and over 1 µM on PKC delta. For the same molecule, the IC50-SGK1 result against SGK kinase is “Inactive”.
`Fc1ccccc1CNc1ncc2nc(-c3c(Cl)cccc3Cl)n(CC3CCCNC3)c2n1` (stereo not shown) [Compound 117]: the Ki is under 1 µM at PKCθ, over 1 µM on PKC alpha and over 1 µM at PKC delta. In addition, the IC50-SGK1 result on SGK kinase is listed as “Inactive”.
For `Fc1ccc(CNc2ncc3nc(-c4c(Cl)cccc4Cl)n(CCC4CCNCC4)c3n2)cc1F` [Compound 118], the Ki is under 1 µM on PKCθ, over 1 µM on PKC alpha and over 1 µM at PKC delta. At SGK kinase, the IC50 is over 10 µM.
For the molecule `Fc1ccc(CNc2ncc3nc(-c4c(Cl)cccc4Cl)n(C[C@H]4CCNC4)c3n2)cc1F` [Compound 121], the Ki is under 0.1 µM at PKCθ, over 1 µM at PKC alpha and over 1 µM at PKC delta. Also, the IC50-SGK1 entry against SGK kinase was “Inactive”.
Turning to `NCCCCCCn1c(-c2c(Cl)cccc2Cl)nc2cnc(NCc3ccccc3F)nc21` [Compound 122], the Ki on PKCθ is under 1 µM; at PKC alpha, over 10 µM; on PKC delta, over 1 µM. Moreover, on SGK kinase, the IC50-SGK1 entry is recorded as “Inactive”.
Regarding `Fc1ccc(F)c(CNc2ncc3nc(-c4c(F)cccc4Cl)n(C[C@@H]4CCCNC4)c3n2)c1` [Compound 124], the values for the Ki at PKCθ, on PKC alpha and at PKC delta were under 1 µM, over 1 µM and over 1 µM, respectively. The IC50 on SGK kinase is over 10 µM.
Regarding `Fc1ccc(F)c(CNc2ncc3nc(-c4c(Cl)cccc4Cl)n(C[C@H]4CCNC4)c3n2)c1` [Compound 125], the figures for the Ki at PKCθ, on PKC alpha and at PKC delta were under 1 µM, over 1 µM and over 1 µM, respectively. Besides, on SGK kinase, the IC50-SGK1 entry is “Inactive”.
Regarding `Fc1cccc(CNc2ncc3nc(-c4c(Cl)cccc4Cl)n(CCC4CCNCC4)c3n2)c1` [Compound 126], the Ki on PKCθ is under 1 µM; at PKC alpha, over 1 µM; at PKC delta, over 1 µM. Moreover, the IC50 at SGK kinase was over 1 µM.
Take `Fc1cccc(CNc2ncc3nc(-c4c(Cl)cccc4Cl)n(C[C@H]4CCNC4)c3n2)c1` [Compound 127]: the Ki is under 1 µM at PKCθ, over 1 µM on PKC alpha and over 1 µM on PKC delta. Besides, the IC50-SGK1 result against SGK kinase was “Inactive”.
For the molecule `Fc1ccc(CNc2ncc3c(n2)C(C[C@@H]2CCCNC2)C(c2c(F)cccc2Cl)=N3)cc1` (stereo partly shown) [Compound 128], the Ki at PKCθ was under 1 µM; on PKC alpha it was over 1 µM; at PKC delta it was over 1 µM. Besides, the IC50-SGK1 entry against SGK kinase is given as “Inactive”.
`Fc1ccccc1CNc1ncc2c(n1)C(C[C@H]1CCCNC1)C(c1c(Cl)cccc1Cl)=N2` (stereo partly shown) [Compound 129]: the Ki at PKCθ is under 1 µM; at PKC alpha it was over 1 µM; at PKC delta, over 1 µM. In addition, the IC50-SGK1 result on SGK kinase is “Inactive”.
Take `Fc1ccc(CNc2ncc3c(n2)C(C[C@H]2CCNC2)C(c2c(Cl)cccc2Cl)=N3)cc1` (stereo partly shown) [Compound 130]: the Ki on PKCθ is under 1 µM; on PKC alpha, over 1 µM; on PKC delta, over 1 µM. On SGK kinase, the IC50-SGK1 result is recorded as “Inactive”.
For the molecule `Fc1ccc(Cl)cc1CNc1ncc2c(n1)C(C[C@H]1CCNC1)C(c1c(Cl)cccc1Cl)=N2` (stereo partly shown) [Compound 131], the inhibitory constant (Ki) is under 1 µM at PKCθ, over 1 µM on PKC alpha and over 1 µM at PKC delta. For the same molecule, the IC50-SGK1 result on SGK kinase is listed as “Inactive”.
For the molecule `Clc1cccc(Cl)c1-c1nc2cnc(NCc3ccccc3)nc2n1C[C@H]1CCNC1` [Compound 133], the Ki is under 1 µM on PKCθ, over 1 µM on PKC alpha and over 1 µM on PKC delta. Further, the IC50-SGK1 result against SGK kinase is “Inactive”.
As to `Clc1cc(Cl)cc(CNc2ncc3nc(-c4c(Cl)cccc4Cl)n(C[C@@H]4CCCNC4)c3n2)c1` [Compound 134], the Ki is under 10 µM at PKCθ, over 10 µM on PKC alpha and over 1 µM at PKC delta. For the same molecule, the IC50-SGK1 result against SGK kinase is reported as “Inactive”.
For `Clc1cccc(CNc2ncc3nc(-c4c(Cl)cccc4Cl)n(C[C@H]4CCNC4)c3n2)c1` [Compound 135], in that order: under 1 µM, over 1 µM, over 1 µM and “Inactive”.
For `Fc1ccc(CNc2ncc3nc(-c4ccccc4Cl)n(C[C@@H]4CCCNC4)c3n2)cc1F` [Compound 136], in that order: under 1 µM, over 1 µM, over 1 µM and “Inactive”.
The like results for `C[C@H](Nc1ncc2nc(-c3c(Cl)cccc3Cl)n(CC3CCNC3)c2n1)c1ccccc1F` (stereo partly shown) [Compound 138] were, in that order, under 1 µM, over 1 µM, over 1 µM and “Inactive”.
Turning to `Clc1cccc(Cl)c1-c1nc2cnc(NCc3ccccc3)nc2n1CCC1CCNCC1` [Compound 141], the Ki at PKCθ was under 1 µM; on PKC alpha, over 10 µM; at PKC delta, over 10 µM. Further, on SGK kinase, the IC50 was over 1 µM.
With `Fc1ccc(CNc2ncc3nc(-c4c(Cl)cccc4Cl)n(CC4CCNC4)c3n2)cc1F` (stereo not shown) [Compound 142], the results for the Ki on PKCθ, on PKC alpha and on PKC delta were under 1 µM, over 1 µM and over 1 µM, respectively. Moreover, the IC50 at SGK kinase was over 10 µM.
In the case of `NCCN1CCC(n2c(-c3c(Cl)cccc3Cl)nc3cnc(NCc4ccccc4F)nc32)CC1` [Compound 143], the Ki is under 1 µM at PKCθ, over 1 µM on PKC alpha and over 1 µM on PKC delta. Besides, the IC50-SGK1 result on SGK kinase was “Inactive”.
Consider `Fc1ccc(CNc2ncc3nc(-c4c(F)cccc4Cl)n(C[C@@H]4CCCNC4)c3n2)c(F)c1` [Compound 144], for which the Ki is under 1 µM at PKCθ, over 1 µM at PKC alpha and over 1 µM on PKC delta. The IC50-SGK1 entry against SGK kinase is listed as “Inactive”.
`Fc1cc(F)cc(CNc2ncc3nc(-c4c(Cl)cccc4Cl)n(CCC4CCNCC4)c3n2)c1` [Compound 146]: the Ki is under 1 µM at PKCθ, over 1 µM on PKC alpha and over 1 µM on PKC delta. The IC50-SGK1 result on SGK kinase is on record as “Inactive”.
Turning to `Fc1cccc(CNc2ncc3nc(-c4c(Cl)cccc4Cl)n(CC4CCNC4)c3n2)c1` (stereo not shown) [Compound 147], the Ki at PKCθ was under 1 µM; at PKC alpha, over 1 µM; at PKC delta, over 1 µM. For the same molecule, at SGK kinase, the IC50-SGK1 result was “Inactive”.
For the molecule `Fc1ccc(CNc2ncc3nc(-c4c(Cl)cccc4Cl)n(CCC4CCNCC4)c3n2)c(F)c1` [Compound 148], the Ki on PKCθ was under 1 µM; at PKC alpha, over 1 µM; on PKC delta, over 1 µM. Also, the IC50 on SGK kinase is over 10 µM.
On to `Fc1ccccc1CNc1ncc2nc(-c3c(Cl)cccc3Cl)n(CC3CCNC3)c2n1` (stereo not shown) [Compound 150], for which the Ki was under 1 µM on PKCθ, over 1 µM on PKC alpha and over 1 µM at PKC delta. The IC50-SGK1 entry on SGK kinase was “Inactive”.
Take `Clc1cccc(Cl)c1-c1nc2cnc(NCc3ccccc3)nc2n1CC1CCNC1` (stereo not shown) [Compound 151]: the Ki is under 1 µM on PKCθ, over 1 µM on PKC alpha and over 1 µM at PKC delta. The concentration for half-maximal inhibition (IC50) on SGK kinase is over 10 µM.
For the molecule `Fc1ccccc1CNc1ncc2nc(-c3c(Cl)cccc3Cl)n(C[C@H]3CCNC3)c2n1` [Compound 153], the Ki at PKCθ is under 1 µM; on PKC alpha, over 1 µM; on PKC delta, over 1 µM. Moreover, the IC50 on SGK kinase was over 1 µM.
`Clc1ccc(CNc2cc3c(cn2)nc(-c2c(Cl)cccc2Cl)n3CCC2CCNCC2)cc1Cl` [Compound 154]: the Ki at PKCθ is under 10 µM; on PKC alpha it was over 1 µM; on PKC delta, over 1 µM. For the same molecule, the IC50 at SGK kinase is over 1 µM.
Regarding `Fc1ccc(CNc2cc3c(cn2)nc(-c2c(F)cccc2Cl)n3C[C@@H]2CCNC2)cc1Cl` [Compound 155], the Ki on PKCθ was under 1 µM; on PKC alpha it was over 1 µM; on PKC delta, over 1 µM. Further, on SGK kinase, the IC50-SGK1 result is “Inactive”.
In the case of `Fc1ccccc1CNc1ncc2nc(-c3c(F)cccc3Cl)n(C[C@H]3CCCNC3)c2n1` [Compound 156], the Ki at PKCθ is under 1 µM; on PKC alpha, over 10 µM; at PKC delta it was over 1 µM. Also, the IC50 on SGK kinase was over 1 µM.

The values are drawn from patent publication US20110046131A1, “PURINES AS PKC-THETA INHIBITORS” (N.V. Organon and Pharmacopeia, LLC, priority 2006, published 2011).
